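Exposure lasted 48 hours, with cells grown in 96-well plates and compounds tested at five concentrations. GI50 = concentration required for 50% inhibition of growth.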 The source made the active and inactive calls. Cut-off read from the data, not from the text of the source: active = GI50 up to about 1.1 µM and inactive = higher.

Here are results for six molecules from ChEMBL document CHEMBL1201862, “PubChem BioAssay data set” (2004).

What all share (assay): growth of human tumour cells (NCI), 48 h
Experiment [1] concerns TK-10.
In experiment [2] the test system is SNB-75.
The subject of experiment [3] is UO-31.
The test system of experiment [4] is LOX IMVI.
Experiment [5] deals with OVCAR-8.
Experiment [6] has as its system DLD-1.
The test system of experiment [7] is 786-0.
Experiment [8] has as its system T47D.
Experiment [9] relates to SR.
Experiment [10] relates to Hs-578T.
For experiment [11], the system named is PC-3.
Experiment [12] deals with NCI-H226.
Experiment [13] deals with BT-549.
The subject of experiment [14] is MDA-MB-435.
Experiment [15] relates to MDA-N.
Experiment [16] relates to NCI/ADR-RES.
Experiment [17] relates to RXF 393.
Experiment [18] relates to MCF7.
In experiment [19] the test system is DU-145.
For experiment [20], the system named is MDA-MB-231.

Turning to `COc1ccc(CNc2nc3cc(C(F)(F)F)ccc3nc2C)cc1OC`, the GI50 in experiment [1] is 24.3 µM (inactive); in experiment [2], 18.5 µM (inactive); in [3] it was 24 µM (inactive); in experiment [4], 24.9 µM (inactive); in experiment [5], 30.3 µM (inactive); in experiment [6], 35.7 µM (inactive). Moreover, in [7], the GI50 is 22 µM (inactive).
For `CCCSc1ccc2[nH]c(N3C(=O)/C(=C/c4cc(OC)c(OC)c(OC)c4)N=C3c3ccccc3)cc2c1`, the GI50 in experiment [8] was 11 µM (inactive); in experiment [1] it was 17 µM (inactive); in experiment [9], 1.66 µM (inactive); in experiment [2] it was 10.8 µM (inactive); in experiment [10] it was 0.67 µM (active); in experiment [11], 16.1 µM (inactive). Also, the GI50 in [3] is 15.1 µM (inactive); in experiment [12], > 37.5 µM (inactive); in experiment [13], 10.8 µM (inactive); in [4], 12.2 µM (inactive); in [14], 4.03 µM (inactive); in [15], 4.88 µM (inactive). In addition, the GI50 in [16] is 11.6 µM (inactive); in experiment [17], 7.73 µM (inactive); in experiment [18], 12.6 µM (inactive); in experiment [5], 12.6 µM (inactive); in [7], 3.24 µM (inactive); in experiment [19], 10.1 µM (inactive). In addition, the GI50 in experiment [20] is > 37.5 µM (inactive).
As to `CC(C)OP(=O)(OC(C)C)/C(=N/Nc1ccc([N+](=O)[O-])cc1)NCCO`, the GI50 was > 100 µM (inactive) in experiment [1]; > 100 µM (inactive) in [9]; > 100 µM (inactive) in experiment [2]; > 100 µM (inactive) in experiment [3]; > 100 µM (inactive) in experiment [12]; 56.1 µM (inactive) in experiment [4]. In addition, the GI50 in [5], in experiment [6] and in [7] was > 100 µM (inactive) in each case.
As for `O=C1c2ccccc2C(=O)N1[C@@H](Cc1ccccc1)C(=O)n1cccc1CO`, the GI50 in experiment [8], in experiment [1], in experiment [9], in experiment [2], in [10] and in [11] was > 100 µM (inactive) in each case. Further, the GI50 in experiment [3], in experiment [12], in experiment [13], in [4], in experiment [14] and in [15] was > 100 µM (inactive) each time. The GI50 in [16] is > 100 µM (inactive); in [17] it was 1.02 µM (active); in experiment [18], > 100 µM (inactive); in [5], > 100 µM (inactive); in experiment [7] it was > 100 µM (inactive); in [19], > 100 µM (inactive). The GI50 in experiment [20] is > 100 µM (inactive).
For the molecule `COc1cc(Nc2c3ccccc3nc3ccccc23)ccc1NS(C)(=O)=O`, the GI50 in experiment [9] is 2.72 µM (inactive); in experiment [2], 7.46 µM (inactive); in experiment [3], 4.41 µM (inactive); in experiment [12], 11.2 µM (inactive); in experiment [4] it was 2.67 µM (inactive); in experiment [5], 4.5 µM (inactive). Also, the GI50 in experiment [6] was 5.14 µM (inactive).
In the case of `CC(C)(C)c1cc(C(=O)/C=C/c2ccc(O)c(O)c2O)cc(C(C)(C)C)c1O`, the GI50 in experiment [8] is 2 µM (inactive); in experiment [1], 3.57 µM (inactive); in [9], 1.45 µM (inactive); in experiment [2] it was 1.95 µM (inactive); in [10], 3.99 µM (inactive); in [11] it was 3.67 µM (inactive). Further, the GI50 in experiment [3] was 2.67 µM (inactive); in experiment [12] it was 14.1 µM (inactive); in experiment [13], 7.4 µM (inactive); in experiment [4] it was 9.71 µM (inactive); in experiment [14], 6.89 µM (inactive); in experiment [15] it was 4.38 µM (inactive). The GI50 was 1.69 µM (inactive) in experiment [16]; 2.84 µM (inactive) in experiment [17]; 4.6 µM (inactive) in experiment [18]; 4.07 µM (inactive) in experiment [5]; 4.43 µM (inactive) in experiment [7]; 10.5 µM (inactive) in experiment [19]. In addition, in experiment [20], the GI50 is 12 µM (inactive).
